Values after ≈ are worked out from the molar mass of the structure shown. Active and inactive are the calls of the source. The calls are words filed in the database; no cut-off is given here.
Tests used:
Type in all cases: functional, organism-based
[1] = test system: Mus musculus; test: (§1) Compound was evaluated for the blood-schizonticidal antimalarial activity against Plasmodium berghei (sensitive strain) in mice (Mus musculus) at 100 mg/kg/day x 4 (oral); indicates that the treated animals show positive parasitaemia either on D+4 or D+7 and usually dieby D+14 (survival=0/6)
[2] = test system: Mus musculus; test: as §1, with “yoelii nigeriensis (multidrug-resistant” for “berghei (sensitive”, “orD+7” for “or D+7”, “die by” for “dieby”
[3] = test system: Plasmodium falciparum; test: Inhibitory concentration against chloroquine-sensitive Plasmodium falciparum
[4] = test system: Mus musculus; test: Compound was evaluated for the blood-schizonticidal antimalarial activity against Plasmodium berghei (sensitive strain) in mice (Mus musculus) at 10 mg/kg/day x 4 (oral); indicates that all of the treated animals show negative parasitaemia up to D+7 (survival=4/6)
[5] = test system: Mus musculus; test: Compound was evaluated for the blood-schizonticidal antimalarial activity against Plasmodium berghei (sensitive strain) in mice (Mus musculus) at 25 mg/kg/day x 4 (oral); indicates complete elimination of malaria parasites from the body, and animals survive up to day D+60 (survival=6/6)
[6] = test system: Mus musculus; test: Compound was evaluated for the blood-schizonticidal antimalarial activity against Plasmodium berghei (sensitive strain) in mice (Mus musculus) at 50 mg/kg/day x 4 (oral); indicates complete elimination of malaria parasites from the body, and animals survive up to day D+60 (survival=6/6)
[7] = test system: Mus musculus; test: Compound was evaluated for the blood-schizonticidal antimalarial activity against Plasmodium yoelii nigeriensis (multidrug-resistant strain) in mice (Mus musculus) at 100 mg/kg/day x 4 (oral); indicates complete elimination of malaria parasites from the body, and animalssurvive up to day D
[8] = test system: Mus musculus; test: Compound was evaluated for the blood-schizonticidal antimalarial activity against Plasmodium yoelii nigeriensis (multidrug-resistant strain) in mice (Mus musculus) at 50 mg/kg/day x 4 (oral); indicates that all of the treated animals show negative parasitaemia up to D+7(survival=4/6)
[9] = test system: Plasmodium falciparum; test: Inhibitory activity I50 against chloroquine-sensitive Plasmodium falciparum
[10] = test system: Mus musculus; test: Compound was evaluated for the blood-schizonticidal antimalarial activity against Plasmodium berghei (sensitive strain) in mice (Mus musculus) at 100 mg/kg/day x 4 (oral); indicates complete elimination of malaria parasites from the body, and animals survive up to day D+60 (survival=6/6)

## COc1cc(NC(C)CCCN)c2ncccc2c1 (configuration not stated)
[1]
  Antimalarial activity: inactive
[2]
  Antimalarial activity: inactive

## COc1cc(NC(C)CCCN)c2nc(C34C[C@H]5C[C@@H](C3)C[C@@H](C4)C5)ccc2c1 (some centres not stated)
[1]
  Antimalarial activity: inactive
[2]
  Antimalarial activity: inactive
[3]
  IC50: > 0.5 µg/mL

## COc1cc(NC(C)CCCN)c2nc(C(C)(C)C)ccc2c1 (configuration not stated)
[4]
  Antimalarial activity: Active
[5]
  Antimalarial activity: Curative
[6]
  Antimalarial activity: Curative
[7]
  Antimalarial activity: Curative
[8]
  Antimalarial activity: Active
[9]
  IC50: 0.0391 µg/mL (≈ 0.124 µM)
[10]
  Antimalarial activity: Curative
